Experimental data as given in the NIST ThermoML archive (doi:10.1021/je100100n).
± gives the expanded uncertainty stated by the source.

Tests used:
[1] = xn = mol fraction of the nth substance listed; settings: 101 kPa, Liquid
[2] = 101.3 kPa, Liquid

CCOC(=O)CC(=O)OCC [diethyl 1,3-propanedioate] + CCCO
mass density [kg/m3], [1]
Settings | 288.15 K | 298.15 K | 313.15 K | 328.15 K
x1 = 0.1001 | 854.156 ± 0.4 | 845.431 ± 0.41 | 832.128 ± 0.43 | 818.439 ± 0.45
x1 = 0.2 | 891.858 ± 0.34 | 882.638 ± 0.35 | 868.577 ± 0.37 | 854.173 ± 0.39
x1 = 0.2999 | 923.874 ± 0.29 | 914.254 ± 0.31 | 899.629 ± 0.33 | 884.69 ± 0.35
x1 = 0.3501 | 938.229 ± 0.27 | 928.438 ± 0.28 | 913.567 ± 0.3 | 898.431 ± 0.33
x1 = 0.4001 | 951.433 ± 0.25 | 941.51 ± 0.26 | 926.45 ± 0.29 | 911.123 ± 0.31
x1 = 0.4499 | 963.765 ± 0.23 | 953.71 ± 0.25 | 938.475 ± 0.27 | 922.986 ± 0.29
x1 = 0.4999 | 975.313 ± 0.21 | 965.148 ± 0.23 | 949.737 ± 0.25 | 934.134 ± 0.27
x1 = 0.5446 | 985.016 ± 0.2 | 974.758 ± 0.21 | 959.257 ± 0.24 | 943.524 ± 0.26
x1 = 0.5997 | 996.235 ± 0.18 | 985.888 ± 0.2 | 970.245 ± 0.22 | 954.437 ± 0.24
x1 = 0.7003 | 1014.96 ± 0.2 | 1004.46 ± 0.18 | 988.638 ± 0.19 | 972.67 ± 0.22
x1 = 0.7998 | 1031.53 ± 0.23 | 1020.94 ± 0.21 | 1004.99 ± 0.18 | 988.923 ± 0.19
x1 = 0.8997 | 1046.55 ± 0.25 | 1035.87 ± 0.23 | 1019.84 ± 0.21 | 1003.72 ± 0.18
x1 = 1 | 1060.33 ± 0.27 | 1049.6 ± 0.26 | 1033.5 ± 0.23 | 1017.34 ± 0.2

CCCCCO [pentan-1-ol]
[2]
Settings | mass density [kg/m3]
288.15 K | 818.801 ± 0.44
298.15 K | 811.465 ± 0.45
313.15 K | 800.264 ± 0.47
328.15 K | 788.737 ± 0.48

CCOC(=O)CC(=O)OCC [diethyl 1,3-propanedioate] + CO
mass density [kg/m3], [1]
Settings | 288.15 K | 298.15 K | 313.15 K | 328.15 K
x1 = 0.05 | 841.286 ± 0.44 | 831.536 ± 0.45 | 816.754 ± 0.47 | 801.691 ± 0.49
x1 = 0.1 | 876.23 ± 0.38 | 866.252 ± 0.39 | 851.13 ± 0.41 | 835.697 ± 0.43
x1 = 0.1501 | 904.185 ± 0.33 | 894.037 ± 0.34 | 878.631 ± 0.37 | 862.956 ± 0.39
x1 = 0.2001 | 926.962 ± 0.29 | 916.671 ± 0.31 | 901.091 ± 0.33 | 885.223 ± 0.35
x1 = 0.2501 | 945.901 ± 0.26 | 935.504 ± 0.28 | 919.763 ± 0.3 | 903.75 ± 0.32
x1 = 0.3001 | 961.96 ± 0.24 | 951.502 ± 0.25 | 935.636 ± 0.28 | 919.517 ± 0.3
x1 = 0.35 | 975.573 ± 0.22 | 965.04 ± 0.23 | 949.084 ± 0.25 | 932.879 ± 0.28
x1 = 0.4001 | 987.417 ± 0.2 | 976.822 ± 0.21 | 960.784 ± 0.24 | 944.523 ± 0.26
x1 = 0.4503 | 997.752 ± 0.18 | 987.12 ± 0.2 | 971.04 ± 0.22 | 954.725 ± 0.24
x1 = 0.5004 | 1006.9 ± 0.19 | 996.235 ± 0.18 | 980.1 ± 0.21 | 963.763 ± 0.23
x1 = 0.5497 | 1014.88 ± 0.2 | 1004.18 ± 0.18 | 988.016 ± 0.19 | 971.649 ± 0.22
x1 = 0.6 | 1022.04 ± 0.21 | 1011.32 ± 0.2 | 995.132 ± 0.18 | 978.761 ± 0.21
x1 = 0.6495 | 1028.48 ± 0.22 | 1017.74 ± 0.2 | 1001.52 ± 0.18 | 985.159 ± 0.2
x1 = 0.6997 | 1034.33 ± 0.23 | 1023.59 ± 0.21 | 1007.37 ± 0.19 | 991.006 ± 0.19
x1 = 0.7978 | 1044.36 ± 0.25 | 1033.61 ± 0.23 | 1017.38 ± 0.2 | 1001.07 ± 0.18
x1 = 0.9009 | 1053.15 ± 0.26 | 1042.39 ± 0.24 | 1026.22 ± 0.22 | 1009.98 ± 0.19
x1 = 1 | 1060.33 ± 0.27 | 1049.6 ± 0.26 | 1033.5 ± 0.23 | 1017.34 ± 0.2
